Peptide text beside a SMILES is read from it. * marks the point of attachment. Cbz = O=C(OCc1ccccc1)*
Columns and labels:
[1] = test system: neuronal cells; assay: Live microscopy of neuronal gigasome generation; format: cell-based, human; details: 0.1 M MG-132; live time-lapse microscopy; compared to DMSO control
Method: Cells were stained with Hoechst 33342 to visualize nuclei and nuclear material, CellTracker Green to visualize cytoplasm, and MitoTracker Deep Red to visualize mitochondria. Gigasome production was then induced with various drugs as described in Example 1. Cell cultures were imaged every 15-30 minutes under a time lapse for up to 48 hours (FIGS. 1A and 1B). For image analysis, ImageJ and Zeiss ZEN Blue software was used. Gigasomes were identified and quantified as distinct circular/spherical vesicles in the extracellular space of the neurons, between 1-20 μm in diameter. Gigasomes were identified based on having positive neuronal cytoplasmic signal and negative Hoechst 33342 signal. The presence of mitochondria in gigasomes was measured via respective fluorescent signal.
Time-lapse montages were produced and edited to show the formation of gigasomes from parent neuronal cells after treatment with […] MG-132 (FIGS. 1A and 1B). Gigasomes and parent cells were identified and tracked throughout the duration of the time lapse. In some experiments, gigasomes produced by parent cells in MG-132 treatment groups were identified.

[2] = test system: cardiomyocytic cell line derived from human ventricular heart tissue; assay: Cell viability in cardiomyocyte compound screen (CellTiter-Glo); format: cell-based; details: human, 24 h
Text: Cells were stained with Hoechst 34580, CellTracker Green/CellMask Green Actin and MitoTracker Deep Red to detect nuclear material, cytoplasm/F-actin, and mitochondria, respectively, and cultured in poly-L-lysine-coated 96-well glass bottom plates at 15,800 cells/cm^2 and allowed to adhere overnight. For the screening, a total of 100 randomly organized compounds (TargetMol) were divided in 5 groups. Each group included an untreated condition, a vehicular DMSO control, and a known high-gigasome producing condition to comparatively study gigasome production rates. As a cell death control group, 500 nM Staurosporine was added to induce apoptosis. Cultures were incubated for 24 hours under gigasome inducing conditions at concentrations ranging between 10 nM and 10,000 nM. […] Cells remaining in the 96-well plates were assessed for viability using CellTiter-Glo (Promega).

[3] = test system: neuronal cells; assay: Gigasome-mediated extraction of stress granule-associated protein HuR (fixed plates, confocal); format: cell-based, human
Method: For this paradigm, cells were treated with a low sodium arsenite concentration of 5 μM either alone or in combination with the proteasome inhibitor MG-132 at 0.2 μM. A vehicular control amount of DMSO was added to the media to comparatively study cargo signals within cells and gigasomes. Treatments were carried out in reduced serum-containing media for 24 hours to mimic a chronic exposure to arsenite. The presence of the stress-granule-related cargo within cells and in gigasomes was characterized and quantified by confocal microscopy analysis of 4% paraformaldehyde. Non-specific labeling was blocked by incubation with 5% normal goat serum in PBS in the presence of 0.1% Triton X-100, for 2 h at room temperature, followed by immunolabeling with an antibody against the RNA-binding protein HuR (see Table 12) and incubation with Alexa Fluor® 568 secondary antibodies. Phalloidin Alexa Fluor® 488 was used to mark the proximal plasma membrane. Nuclei were counterstained with DAPI.
Images were captured using a Zeiss LSM 900 confocal microscope and a 40× objective. For analysis, 10×16-bit images per well were processed to obtain a final total range of 75-200 cells. Composite images were separated in the different channels. The background was subtracted from the red cargo-related channel, as described in Example 13a. The nuclear signal in the blue channel was thresholded using the “Yen” autothreshold algorithm. To measure the nuclear-to-cytosolic translocation of the stress-granule-related protein cargo upon treatment, firstly, the cargo-related nuclear signal was subtracted from the respective red channel image by creating a nuclear selection from the thresholded blue channel image, which was added to ImageJ Manager. The nuclear selection was then transferred to the background-subtracted red channel and the nuclear cargo signal was removed from the image leaving only the cytosolic signal. The cleared red channel image was thresholded using the “default” autothreshold algorithm for downstream particle analysis. To measure the cytosolic cargo signal, a cellular mask was then generated by thresholding the Green/F-actin channel using the “Li” autothreshold method. A cytosolic selection was created, added to ImageJ Manager, and transferred to the background subtracted, nuclear-cleared red channel image. The cytosolic cargo signal (integrated density) was measured and normalized to the number of nuclei counted in each field. Particle analysis was performed as described in Example 13a, using the thresholded green channel to identify particles of interest by filtering by area and circularity and re-directing to the blue and red channel for absence of nuclear signal and eventual presence of disease-related cargo, respectively. The quantity or distribution of objects obtained from the particle analysis was obtained as described in Example 13a.

How did the gigasome production [1] turn out when `CC(C)C[C@@H](C=O)NC(=O)[C@H](CC(C)C)NC(=O)[C@H](CC(C)C)NC(=O)OCc1ccccc1` [MG-132, reference compound] (Cbz-Leu-Leu-Leu-aldehyde) was run?
The gigasome production was “increase”.

And the Viability ([2]; 10 nM)?
Its Viability is 100%.

What about the Viability ([2]; 100 nM) of the same compound?
The Viability was 50-75%.

And the HuR cytosolic signal ([3]; 5 μM sodium arsenite, 0.2 μM MG-132, alone or combined, 24 h, compared to DMSO (FIG. 7B))?
The HuR cytosolic signal was “increased”.

What about the “HuR+ve particle intensity distribution (gigasome diameter and brightness)” value ([3]; FIG. 7E) of the same compound?
The value was “larger in diameter and brighter”.

What about the “HuR average intensity within gigasomes” value ([3]; compared to sodium arsenite alone and DMSO (FIG. 7D)) of the same compound?
The value was “higher”.

— US20240400986A1, “MEMBRANE BOUND COMPOSITIONS AND METHODS RELATING TO SAME” (FLAGSHIP PIONEERING INNOVATIONS VII, LLC, priority 2021, published 2024)
